Where a name gives a salt, the structure may show the parent alone. Read-outs that look alike come from different tables or passages of the source.
What was measured:
Electrometric titration = format: physicochemical
bioautogram = format: cell-based
Method: To 110 ml. of methanol and 83 mg. of pre-reduced 5 percent palladium on carbon were added 83 mg. of p-nitrobenzyl 7-[2-(2-thienyl)acetamido]-3-fluoro-3-cephem-4-carboxylate. The mixture was hydrogenated at 53 psig. for one hour. The resulting mixture was filtered, the filtered catalyst was washed with methanol, and the methanol washings were added to the filtrate. The filtrate was then evaporated in vacuo. The residue was dissolved in ethyl acetate, and the ethyl acetate solution was extracted with dilute aqueous sodium bicarbonate. The sodium bicarbonate solution was washed with ethyl acetate, layered with ethyl acetate, and dilute aqueous HCl was added.

[1] = 66% aqueous dmf, only or first pKa, read-out: pKa

`COC(=O)C1=C(O)CS[C@@H]2C(NC(=O)COc3ccccc3)C(=O)N12` (some centres unmarked) [Example 9, Methyl 7-phenoxyacetamido-3-hydroxy-3-cephem-4-carboxylate] gave a pKa (Electrometric titration; [1]) of 5.6.

With `O=C(Cc1cccs1)NC1C(=O)N2C(C(=O)O)=C(F)CS[C@H]12` (some centres unmarked) [7-[2-(2-Thienyl)acetamido]-3-fluoro-3-cephem-4-carboxylic acid] the “biological activity by bioautogram” value (bioautogram) was “biologically active”.

Compound `CC(=O)NC1C(=O)N2C(C(=O)OCc3ccc([N+](=O)[O-])cc3)=C(O)CS[C@H]12` (some centres unmarked) [Example 13, p-Nitrobenzyl 7-acetamido-3-hydroxy-3-cephem-4-carboxylate] has a pKa (Electrometric titration; [1]) of 5.9.

Compound `NC1C(=O)N2C(C(=O)OC(c3ccccc3)c3ccccc3)=C(O)CS[C@H]12` (some centres unmarked) [diphenylmethyl 7-amino-3-hydroxy-3-cephem-4-carboxylate hydrochloride] has a pKa (Electrometric titration; 60% aqueous dmf, 60% aq. DMF, first group, read-out: titratable groups) of 4.5 and a pKa (Electrometric titration; 60% aqueous dmf, 60% aq. DMF, second group, read-out: titratable groups) of 6.5.

Source: US4260745A, “3-Halo cephalosporins” (Eli Lilly and Company, priority 1979, dated 1981)
